Source: patent US20100152239A1, “Method to Improve Survival in Sepsis” (priority 2008, published 2010)

Tests used:
[1] = Blood chemistry during resuscitation (i-Stat); type: in vivo, rat; conditions: blood at 2 hrs after hemorrhage; n=4/group
Protocol: (§1) Activation Blood was collected at 2 hrs after the hemorrhagic shock and analyzed using the i-Stat blood analyzer (Abbot Laboratories, IL, USA). Lung function was assessed by analyzing blood gases including total and partial carbon dioxide (TCO2, PCO2), bicarbonate (HCO3), pH and the base excess of extracellular fluid (BEecf). The organ function tests include […] sodium, potassium, chloride, the anion gap (AnGap), total plasma protein (TP), and blood urea nitrogen (BUN). Blood chemistry also included glucose, hematocrit and hemoglobin. The systemic inflammatory status was assessed by analyzing critical pro-inflammatory cytokines and cardiodepressant factors such as TNF and HMGB1. The major organs were collected and immediately sliced and washed with PBS at 4° C. TNF concentrations in serum and major organs were determined by ELISA (R&D Systems, Inc., Minneapolis, Minn., USA). HMGB1 was analyzed by Western blot as previously described.

hemorrhagic rats = experiment: Survival after severe hemorrhage and resuscitation; type: in vivo, rat; conditions: for animals with hemorrhagic shock protected: n=7/group
Protocol: Adult male Sprague-Dawley (350-450 g) rats were purchased from Harlen Sprague-Dawley (Indianapolis, Ind., USA) and allowed to acclimate for 7 days, housed at 25° C. on a 12-hr light/dark cycle. Animals were randomly grouped and assigned to a specific experiment. Investigators were blinded to the experimental treatment.
Animals were anaesthetized by inhalation of isoflurane (5% induction, 2% maintenance; Minrad, Buffalo, N.Y., USA) and subjected to surgical catheter placement into the femoral artery and vein under sterile conditions. To avoid blood clot and maintain catheter patency, the catheters were flushed with 1% heparin solution immediately before placement. Heparin was not used in vivo during the experiment or observation period in agreement with previous studies. After the catheter implantation, the blood pressure and the heart rate were recorded for 15 min. to establish a physiological baseline prior the hemorrhage procedure. Then, the animals were subjected to hemorrhage over 15 min. to reach a mean arterial blood pressure (MAP) of 35-40 mmHg and subsequent maintenance of this blood pressure by continued blood withdrawal for another 15 min. After the shock phase, resuscitated animals received specific resuscitation treatment over 40 min. with a total volume of 15 ml/kg (equivalent to 1000 ml of Hextend in a 70 kg person). The femoral artery was catheterized with a catheter R-FAC (Braintree Scientific, Inc., Braintree, Mass., USA) previously flushed with 1% heparin in 0.9% saline to allow spontaneous bleeding due to arterial blood pressure. Shed blood was considered lost and it was not reinfused. After resuscitation treatment, the animals were kept anesthetized for 2 hrs to record heart rate, blood pressure and blood chemistry. The control animals were also anesthetized with isoflurane for blood collection. Then, the anesthesia was stopped and the animals were allowed to recover from anesthesia and housed individually in regular cages. Splenectomy was performed as we described previously. Briefly, the spleen was identified following a midline laparotomy incision, and removed after appropriate blood vessel ligation. Sham animals underwent laparotomy without splenectomy.
All data in the figures and text are expressed as mean±standard deviation (SD). Statistical analyzes were performed using the one-way ANOVA with multiple pairwise comparisons with the Bonferroni's adjustment for multiple hypothesis testing. The Student's t-test was used to compare mean values between two experimental groups. Statistical analyzes of survival were determined using the logrank test. P-values<0.05 were considered statistically significant.
Adult male Sprague-Dawley hemorrhagic rats received no resuscitation (NR) or were resuscitated with 15 ml/kg (i.v.) Hextend (HEXT) or Hextend supplemented with GTS (GTS). (A) Arterial blood pressure was recorded during hemorrhage and the resuscitation treatment. (B) All animals without resuscitation treatment (NR; n=10) died within the first 5 hrs after hemorrhage with an average time of death of 161±26 min. Resuscitation with Hextend allowed the animals to restore normal blood pressure and tissue perfusion, and yet 90% of the animals died (n=9). […] P<0.05 survival logrank test versus NR (*) or HXT(#).

HMGB1 = experiment: Serum HMGB1 by Western blot during resuscitation; type: in vivo, rat; conditions: 2 hrs after hemorrhage; n=4/group
Protocol: as §1

TNF [2] = experiment: TNF protein in splenectomized hemorrhagic animals after resuscitation; type: in vivo, rat; conditions: n=4/group
Protocol: as §1

[3] = Arterial blood pressure during hemorrhage and resuscitation; type: in vivo, rat; conditions: 15 ml/kg resuscitation fluid i.v.
Protocol: Animals were anaesthetized by inhalation of isoflurane (5% induction, 2% maintenance; Minrad, Buffalo, N.Y., USA) and subjected to surgical catheter placement into the femoral artery and vein under sterile conditions. To avoid blood clot and maintain catheter patency, the catheters were flushed with 1% heparin solution immediately before placement. […] After the catheter implantation, the blood pressure and the heart rate were recorded for 15 min. to establish a physiological baseline prior the hemorrhage procedure. Then, the animals were subjected to hemorrhage over 15 min. to reach a mean arterial blood pressure (MAP) of 35-40 mmHg and subsequent maintenance of this blood pressure by continued blood withdrawal for another 15 min. After the shock phase, resuscitated animals received specific resuscitation treatment over 40 min. with a total volume of 15 ml/kg (equivalent to 1000 ml of Hextend in a 70 kg person). The femoral artery was catheterized with a catheter R-FAC (Braintree Scientific, Inc., Braintree, Mass., USA) previously flushed with 1% heparin in 0.9% saline to allow spontaneous bleeding due to arterial blood pressure. Shed blood was considered lost and it was not reinfused. After resuscitation treatment, the animals were kept anesthetized for 2 hrs to record heart rate, blood pressure and blood chemistry. […]

TNF [4] = experiment: TNF protein in serum and organs by ELISA during resuscitation; type: in vivo, rat; conditions: non-splenectomized animals; 2 hrs; n=4/group
Protocol: as §1

[5] = mice; cited from earlier work
RelB NF-κB = RelB NF-κB binding to DNA in spleen (TransAM DNA-Binding ELISA); type: in vivo, rat; conditions: nuclear extracts at 2 hrs after hemorrhage
p65RelA NF-κB = p65RelA NF-κB binding to DNA in organs (TransAM DNA-Binding ELISA); type: in vivo, rat; conditions: nuclear extracts at 2 hrs after hemorrhage
Protocol: (§2) Homogenates were normalized by protein concentration and the activation of IκBα was analyzed by Western blot by using anti-IκBα polyclonal antibody ab7217 and anti-phosphorylated-IκBα(phospho S32+S36) monoclonal antibody [clone39A1431] ab12135 (Abcam; Cambridge, Mass., USA). Transcriptional activity of splenic p65RelA was analyzed by TransAM DNABinding ELISA (Active Motif; Cambridge, Mass., USA) following manufacturer's instructions. […] Protein levels were measured using the Bradford method (BIO-RAD) and PARP activity was normalized to protein content.

mRNA TNF = experiment: TNF transcription in heart and spleen by real-time PCR; type: in vivo, rat; conditions: 2 hrs after hemorrhage; as compared with Hextend; n=4/group
Protocol: We analyzed mRNA TNF levels in the heart and the spleen by real-time PCR (FIG. 5, GTS inhibits TNF transcription in the spleen during resuscitation. Organs from control or hemorrhagic animals without or with resuscitation were analyzed at 2 hrs after hemorrhage. TNF transcription in the (A) heart and (B) spleen was analyzed by real-time PCR. * represents P<0.05 versus HXT (n=4/group; one-way ANOVA with Bonferroni's corrections)). Hemorrhage increased mRNA TNF levels in both the heart and the spleen as analyzed by real-time PCR. […] In order to determine whether the inhibition of splenic TNF is sufficient to account for the anti-inflammatory potential of GTS, we analyzed the pharmacological implications of the spleen during resuscitation.

[6] = rats; cited from earlier work
[7] = tested on: poly(ADP-ribose) polymerase (PARP); experiment: PARP activity in organ homogenates; type: in vivo, rat; conditions: liver homogenates; n=4/group
Protocol: as §2

[8] = tested on: RAW264.7 macrophage cells; conditions: via alpha7nAchR; cited from earlier work
serum TNF and HMGB1 = conditions: cited from earlier work
macrophages = conditions: via alpha7nAChR; cited from earlier work

COc1ccc(/C=C2\CCCN=C2c2cccnc2)c(OC)c1 [GTS, 3-[(2,4-dimethoxy)benzylidene]-anabaseine]
AnGap, bicarbonate and chloride [1]: re-established normal values of AnGap and bicarbonate but not hypochloremia
hyperglycemic response (glucose) [1]: significantly prevented
metabolic acidosis (pH) [1]: prevented metabolic acidosis
uremia (blood urea nitrogen) [1]: did not prevent uremia
animals with hemorrhagic shock protected (hemorrhagic rats; 0.02 mg/kg GTS in Hextend): 17%
protection as compared with Hextend solution alone (logrank) (hemorrhagic rats; 0.2 mg/kg GTS): statistically significant protection
animals with hemorrhagic shock protected (hemorrhagic rats; 0.2 mg/kg GTS in Hextend): 67%
protection as compared with Hextend solution alone (logrank) (hemorrhagic rats; 2 mg/kg GTS): statistically significant protection
survival from lethal hemorrhage (hemorrhagic rats; Hextend supplemented with 350 uM GTS, 15 ml/kg i.v., n=7, followed up to 7 days): rescued all the animals from lethal hemorrhage
serum HMGB1 levels (HMGB1): no serum HMGB1 was found
TNF levels in serum, lung and heart of splenectomized animals (TNF [2]): significantly inhibited serum TNF levels as well as TNF levels in the lung and the heart
systemic (serum) TNF levels in splenectomized animals (TNF [2]): significantly inhibited systemic TNF levels
blood pressure after resuscitation [3]: re-established blood pressure
TNF levels in organs (lung, liver, heart, spleen) (TNF [4]): blunted TNF levels in all of the organs
serum (circulating) TNF levels (TNF [4]): circulating TNF levels similar to those in control mice
effect on locomotor activity [5]: no effect
RelB NF-κB activation in spleen (RelB NF-κB): not affected
p65RelA NF-κB activation in organs (heart, liver, spleen) (p65RelA NF-κB): inhibited p65RelA NF-κB in most of the organs but not in the heart
mRNA TNF levels in heart and spleen (mRNA TNF): decreased mRNA TNF levels in the spleen but not in the heart
effect on dopamine turnover [6]: no effect
hepatic PARP activity [7]: inhibited PARP activation

CN1CCCC1c1cccnc1 (stereo not drawn) [nicotine]
endotoxin-induced p65NF-κB activation [8]: inhibits endotoxininduced p65NF-κB activation
survival (serum TNF and HMGB1; experimental models of systemic inflammation): improves survival
serum TNF and HMGB1 levels (serum TNF and HMGB1; in vivo treatment, experimental models of systemic inflammation): inhibits serum TNF and HMGB1 levels
systemic TNF levels in sham versus splenectomized animals (serum TNF and HMGB1; previous studies): attenuated systemic TNF levels in sham but not in splenectomized animals
production of TNF and HMGB1 in macrophages (macrophages): inhibits TNF and HMGB1 production
effect on locomotor activity [5]: biphasic effect
